Assay results reported in patent US9060516B2, “Method for controlling aquatic weeds” (BASF SE, priority 2005, dated 2015).

Key:
[1] = test system: Mixed population of submersed weed species: Hydrilla verticillata and Egeria densa; test: Greenhouse test, static exposure of a mixed population of submersed weed species to quinmerac and quinclorac; assay type: in vivo; conditions: for Shoot Fresh / Shoot Length: static exposure, 12 weeks after treatment; for Shoot Fresh: control 6.8 g, LSD at 0.05 = 3.1; for Shoot Length: control 37.3 cm, LSD at 0.05 = 17.4
Experimental: To begin the experiment, containers were filled and maintained with a volume of 4000 ml of distilled water that was maintained at room temperature (24° C.). To each container, established weed plants (potted in sand mixture) were transferred into the water column. Plants were selected for uniformity and length of shoot growth (approx 15 cm). Plants were allowed to equilibrate in the containers for 24 hrs prior to herbicide treatment. Experimental treatments included an untreated control, quinmerac at 100, 250, and 500 ppb, as well as, quinclorac at 250 ppb of actual acid equivalent of herbicide. Treatments were applied to water columns by the use of a pipette. Amount of herbicide applied was based on the total volume of the containers (4000 ml). After initial herbicide treatment, the water columns were gently stirred to ensure uniform distribution. Treatments were arranged as a completely random design with 3 replications. Each container was considered the experimental unit. Greenhouse conditions were maintained at 24/18° C. (day/night) cycle for the duration of the experiment. Natural day length was supplemented with halogen lighting to provide a 14 hr photoperiod. Water level in the containers was periodically checked and maintained at the 4000 ml level for the duration of the study. After 12 weeks of exposure, weed shoot length and fresh weights were measured to ascertain herbicide effects.

[2] = test system: Hydrilla verticillata; test: Greenhouse test, static exposure of Hydrilla verticillata to quinclorac in water columns; assay type: in vivo; conditions: for Hydrilla Shoot Length: static exposure, 11 weeks after treatment, control 30.4 cm, LSD at 0.05 = 11.5
Experimental: To begin the experiment, PVC cylinders were filled and maintained with a volume of 4000 ml of dichlorinated water that was maintained at room temperature (24° C.). To each cylinder, an established hydrilla plant (potted in sand mixture) was transferred into the water column. Hydrilla plants were selected for uniformity and length of shoot growth (approx 15 cm). Plants were allowed to equilibrate in the columns for 24 hrs prior to herbicide treatment. Experimental treatments included an untreated control, and quinclorac at 50, 250 and 500 ppb of actual acid equivalent of herbicide. Treatments were applied to water columns by the use of a pipette. Amount of herbicide applied was based on the total volume of the cylinders (4000 ml). After initial herbicide treatment, the water columns were gently stirred to ensure uniform distribution. Treatments were arranged as a completely random design with 3 replications. Each cylinder was considered the experimental unit. Greenhouse conditions were maintained at 24/18° C. (day/night) cycle for the duration of the experiment. Natural day length was supplemented with halogen lighting to provide a 14 hr photoperiod. Water level in the cylinders was periodically checked and maintained at the 4000 ml level for the duration of the study. After 11 weeks of exposure, hydrilla shoot lengths were measured to ascertain herbicide effects.

SMILES	Visual symptomology ([1]; 12 weeks of exposure, intensity tended to be rate responsive)	Shoot Fresh ([1]; 100 ppb acid equivalent)	Shoot Length ([1]; 100 ppb acid equivalent)	Shoot Fresh ([1]; 250 ppb acid equivalent)	Shoot Length ([1]; 250 ppb acid equivalent)	Reduction in both shoot length and fresh weight vs. the control ([1]; 250 ppb, 12 weeks of exposure)	Shoot Fresh ([1]; 500 ppb acid equivalent)	Shoot Length ([1]; 500 ppb acid equivalent)	Reduction in both shoot length and fresh weight vs. the control ([1]; 500 ppb, 12 weeks of exposure)	Hydrilla Shoot Length ([2]; 50 ppb acid equivalent)	Hydrilla Shoot Length ([2]; 250 ppb acid equivalent)	Hydrilla Shoot Length ([2]; 500 ppb acid equivalent)	Effect on the growth of hydrilla ([2]; after the 11 week exposure period, 50-500 ppb)	Visual symptomology ([2]; after the 11 week exposure period, intensity tended to be rate responsive)
Cc1cnc2c(C(=O)O)c(Cl)ccc2c1 [Quinmerac, 7-chloro-3-methylquinoline-8-carboxylic acid]	reduction in plant vigour and auxinic-like twisting of leaf tissue	5.1 grams	15.0 cm	0.5 grams	8.9 cm	Significant reduction	0.1 grams	6.5 cm	Significant reduction					
O=C(O)c1c(Cl)ccc2cc(Cl)cnc12 [Quinclorac, 3,7-dichloroquinoline-8-carboxylic acid]				1.5 grams	15.7 cm	Significant reduction				15.0 cm	8.9 cm	6.5 cm	significant effect on the growth of hydrilla	reduction in plant vigour and auxinic-like twisting of leaf tissue
